Results published in patent US20210255167A1, “COMPOSITIONS AND METHODS FOR ASSESSING TOXICITY USING DYNAMIC BH3 PROFILING” (Dana-Farber Cancer Institute, Inc., priority 2015, published 2021).

Tested on: adult mouse hepatocytes
Text: In some aspects, methods provided herein relate to determining the toxicity of an agent in a sample of cells. In some embodiments, the toxicity of the agent can be determined by determining a value for delta percent priming. As used herein, “delta percent priming” refers to the extent to which an agent shifts a cell closer to the threshold of apoptosis. In some embodiments, normalized values of MOMP (e.g., percent BH3 domain peptide-induced MOMP, or “% MOMP”) are used to determine a value for delta percent priming. In such embodiments, the value for delta percent priming can be calculated using the equation:
Delta Percent Priming=(% MOMPTEST)−(% MOMPCONTROL),
where “% MOMPTEST” represents the value for percent BH3 domain peptide-induced MOMP determined in a test aliquot (cells contacted with the agent); and “% MOMPCONTROL” represents the value for percent BH3 domain peptide-induced MOMP determined in a control aliquot (cells not contacted with the agent).
Next, various drug compounds were tested to assess the extent of drug-induced increased cell death sensitivity in adult mouse hepatocytes. Freshly isolated adult mouse hepatocytes were treated with different drugs for 20 hours, and the loss of cytochrome c induced by a single concentration of the synthetic Bim BH3 peptide was subsequently assessed by immunofluorescence (FIGS. 5A-D). Increase in cell death sensitivity is indicated by loss of cytochrome c, which is quantified as an increase in apoptotic sensitivity (delta priming, FIG. 5E).

SMILES | apoptotic sensitivity (delta priming)
COc1cccc2c1C(=O)c1c(O)c3c(c(O)c1C2=O)C[C@@](O)(C(=O)CO)C[C@@H]3O[C@H]1C[C@H](N)[C@H](O)[C@H](C)O1 [doxorubicin] | increase apoptotic sensitivity
C=CCNC1=C2C[C@@H](C)C[C@H](OC)[C@H](O)[C@@H](C)/C=C(\C)[C@H](OC(N)=O)[C@@H](OC)/C=C\C=C(/C)C(=O)NC(=CC1=O)C2=O [tanespimycin] | increase apoptotic sensitivity
CC1(C)CCC(c2ccc(Cl)cc2)=C(CN2CCN(c3ccc(C(=O)NS(=O)(=O)c4ccc(N[C@H](CCN5CCOCC5)CSc5ccccc5)c(S(=O)(=O)C(F)(F)F)c4)cc3)CC2)C1 [Navitoclax] | increase apoptotic sensitivity
